Test results reported in ChEMBL document CHEMBL1201862, “PubChem BioAssay data set” (2004).
Calls of active or inactive are those of the source.

What was measured:
[1] = reduction of Shn3 3'UTR-driven luciferase in osteoblasts – cell-based, Clone20 osteoblasts, firefly luciferase, cherry-picked, dose response (AID 624132); assay type: functional;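 also: firefly luciferase luminescence from reporter carrying the Shn3 3'UTR in osteoblasts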
[2] = loss of viability in HepG2 cells – cell-based, CellTiter-Glo, cherry-picked, cytotoxicity control for Shn3 inhibitor project, dose response (AID 624134); assay type: functional
[3] = non-specific 3'UTR reporter inhibition in Clone20-Shn3RL – cell-based, Renilla luciferase, cherry-picked, counter-screen for Shn3 inhibitor project, dose response (AID 624133); assay type: functional
cells [4] = assay type: functional, cell-based
cells [5] = assay type: functional, cell-based; remark: listed apart in the source
[6] = Shn3 transcript knock-down in Clone20 cells – cell-based, qPCR, cherry-pick, dose response (AID 743415); assay type: functional
[7] = Shn3 3'UTR reporter signal decrease – cell-based, Clone20 osteoblasts, firefly luciferase, cherry-pick, set 2, Schnurri-3 inhibitor project, dose response (AID 720490); assay type: functional;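 also: actives lower the luminescence signal as inhibitors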
[8] = EF1alpha-driven Renilla reporter with control 3'UTR suppression – Clone20-Shn3RL cells, dual-Glo, cherry-pick, set 2, counter-screen for Shn3 3'UTR targeting project, dose response (AID 720724); assay type: functional, cell-based; details: Dual-Go Shn3RL
[9] = activation of miR-122 Renilla sensor silencing – cell-based, Huh7 psiCHECK-miR122, Renilla luciferase, cherry-picked, dose response (AID 651956); assay type: functional;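 also: huh7 hepatoma cells stably carrying a psiCHECK-2 miR-122 sensor plasmid; renilla luciferase signal reporting endogenous miR-122 activity after 48 h compound exposure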
[10] = general mammalian cell viability loss – inhibitor set, cherry-pick, set 2, cytotoxicity control for miR-122 modulator project, dose response (AID 720697); assay type: functional, cell-based
[11] = general mammalian cell viability loss – activator set, cherry-pick, cytotoxicity control for miR-122 modulator project, dose response (AID 720690); assay type: functional, cell-based;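 also: HEK293T human cells scored for general mammalian cytotoxicity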
Paired box protein Pax-8 = Paired box protein Pax-8 (Homo sapiens, UniProt Q06710); assay: PAX8 transcriptional activity inhibition in RMG-I – RMG-I cells, luciferase, cherry-pick, dose response (AID 687027); assay type: functional, cell-based;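 also: luciferase reporter driven by Pax8 target thyroperoxidase promoter measured by SteadyGlo luminescence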
[12] = A2780 cell killing – plate reader, dry powder samples, cytotoxicity control, dose response (AID 743046); assay type: functional, cell-based
[13] = CMV-driven luciferase expression suppression in HEK293 – cell-based, luminescence, dry powder, counter-screen for Pax8 inhibitor project, dose response (AID 743020); assay type: functional
[14] = OVCAR-3 cell viability loss – plate reader, dry powder samples, PAX8 inhibitor project, dose response (AID 743044); assay type: functional, cell-based
[15] = IGROV1 cell killing – plate reader, dry powder samples, PAX8 inhibitor project, dose response (AID 743043); assay type: functional, cell-based; details: IGROV-1
[16] = OVCAR8 cell viability loss – plate reader, dry powder samples, PAX8 project, dose response (AID 743197); assay type: functional, cell-based; details: OVCAR-8
[17] = P. falciparum Dd2 growth inhibitors, dose response, SYBR Green, cherry-picked samples (AID 1159567); assay type: functional, cell-based
[18] = toxicity toward immortalized ovarian surface epithelium – cell-based, plate reader, dry powder samples, cytotoxicity control for PAX8 inhibitor project, dose response (AID 743045); assay type: functional
[19] = A549 cell cytotoxicity, dose response, cytotoxicity control, plate reader, cherry-pick, antagonist series (AID 743412); assay type: functional, cell-based
[20] = toxicity toward HepG2 liver cells – cell-based, plate reader, cherry-pick, antagonist series, cytotoxicity control, dose response (AID 743416); assay type: functional
[21] = blockers of bursicon-stimulated LGR2 cAMP reporter – cell-based, HEK293, CRE-luciferase reporter, cherry pick, set 2, dose response (AID 743343); assay type: functional;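 also: transfected cells were stimulated with diluted bursicon conditioned medium after compound addition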
[22] = blockade of melanocortin 4 receptor signaling – cell-based, plate reader, cherry pick, counter-screen for LGR2 antagonist project, dose response (AID 743444); assay type: functional;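 also: transfected HEK 293 cells stimulated with alpha-MSH peptide; potency of inhibitors of the alpha-MSH evoked signal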
[23] = viability loss in HEK293 cells – cell-based, plate reader, cherry-picked samples, cytotoxicity control, dose response (AID 743446); assay type: functional
[24] = growth inhibition of yeast DHODH-expressing 3D7 parasites – SYBR Green, dry powder samples, dose response (AID 1159570); assay type: functional, cell-based;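 also: parasite growth measured after 72 hours of compound exposure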
[25] = toxicity to human HepG2 hepatoma cells – cell-based, plate reader, dry powder samples, cytotoxicity control, dose response (AID 1159569); assay type: functional;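 also: inhibitor potency with signal falling toward the positive control level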
[26] = Dd2 malaria parasite growth inhibition potency – SYBR Green, dry powder samples, dose response (AID 1159566); assay type: functional, cell-based;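 also: potency for growth inhibition with lower SYBR green DNA signal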
[27] = growth inhibition of PfATP4-mutant resistant parasites – NITD609-resistant line, SYBR Green, dry powder, dose response (AID 1159571); assay type: functional, cell-based;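 also: parasites synchronized at ring stage by sorbitol before testing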
[28] = liver cell line viability loss – HepG2, luminescence plate reader, powder samples, set 2, cytotoxicity control, dose response (AID 651860); assay type: functional, cell-based
[29] = molecular target: Endoplasmic reticulum aminopeptidase 1 (Homo sapiens, UniProt Q9NZ08); assay: inhibition of human ERAP1 enzyme activity – biochemical, cherry-pick, set 2, plate reader, dose response (AID 743314)
[30] = Late stage assay provider results from the probe development effort to identify selective inhibitors of heat shock protein 90 (HSP90): Absorbance-based cell proliferation assay in SKBR3 cells.; assay type: functional; details: SK-BR-3
[31] = Late stage assay provider results from the probe development effort to identify selective inhibitors of heat shock protein 90 (HSP90): Absorbance-based cell proliferation assay in MCF7 cells.; assay type: functional
[32] = molecular target: Potassium channel subfamily K member 3 (Homo sapiens, UniProt O14649); assay: inhibition of human KCNK3 channel flux – CHO cells, FluxOR thallium flux, SAR follow-up (AID 652212); assay type: functional
Nonstructural protein 1 = Nonstructural protein 1 (Influenza A virus, UniProt Q194T2); assay type: functional, Influenza A virus (A/California/07/2009(H1N1))
INS1 = assay: INS-1E survival protection against cytokine death – cell-based, luminescence, retest, dose response (AID 449756); assay type: functional; details: Rattus norvegicus;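 also: cell death triggered by IL-1 beta plus TNF-alpha plus IFN-gamma mixture; protective hits raise ATP signal compared with cytokine alone wells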
fMet-Leu-Phe receptor = fMet-Leu-Phe receptor (Homo sapiens, UniProt P21462); assay: formyl peptide receptor binders – dose response (AID 519); assay type: functional
Cytochrome P450 3A4 = Cytochrome P450 3A4 (Homo sapiens, UniProt P08684);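 also: CYP3A4 tested as one member of a cytochrome P450 panel screen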
[33] = T. cruzi growth inhibition in host cells, dose response, cell-based, plate reader, dry powder, set 2 (AID 652275); assay type: functional
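For EC50 in this document: agonist potency from rise in intracellular calcium fluorescence.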

Chain of Paired box protein Pax-8 (Q06710 whole entry): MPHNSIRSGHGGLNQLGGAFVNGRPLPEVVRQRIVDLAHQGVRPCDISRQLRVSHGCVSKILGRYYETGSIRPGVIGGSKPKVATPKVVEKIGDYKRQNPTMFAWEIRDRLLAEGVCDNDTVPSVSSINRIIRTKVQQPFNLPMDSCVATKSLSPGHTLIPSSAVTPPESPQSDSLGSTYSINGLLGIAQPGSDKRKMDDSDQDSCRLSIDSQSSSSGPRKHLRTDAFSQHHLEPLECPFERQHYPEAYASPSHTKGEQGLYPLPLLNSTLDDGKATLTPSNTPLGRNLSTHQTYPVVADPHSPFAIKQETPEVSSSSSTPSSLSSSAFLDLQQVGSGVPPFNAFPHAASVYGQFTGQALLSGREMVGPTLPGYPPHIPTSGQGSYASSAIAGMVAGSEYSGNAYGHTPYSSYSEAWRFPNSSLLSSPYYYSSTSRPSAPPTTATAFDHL
Chain of Nonstructural protein 1 (Q194T2 whole entry): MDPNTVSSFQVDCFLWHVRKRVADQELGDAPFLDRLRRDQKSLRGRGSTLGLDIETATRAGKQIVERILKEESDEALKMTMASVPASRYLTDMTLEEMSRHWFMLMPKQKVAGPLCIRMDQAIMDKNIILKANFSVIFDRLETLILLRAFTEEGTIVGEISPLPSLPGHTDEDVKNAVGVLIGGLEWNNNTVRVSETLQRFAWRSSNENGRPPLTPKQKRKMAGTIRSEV
Chain of fMet-Leu-Phe receptor (P21462 whole entry): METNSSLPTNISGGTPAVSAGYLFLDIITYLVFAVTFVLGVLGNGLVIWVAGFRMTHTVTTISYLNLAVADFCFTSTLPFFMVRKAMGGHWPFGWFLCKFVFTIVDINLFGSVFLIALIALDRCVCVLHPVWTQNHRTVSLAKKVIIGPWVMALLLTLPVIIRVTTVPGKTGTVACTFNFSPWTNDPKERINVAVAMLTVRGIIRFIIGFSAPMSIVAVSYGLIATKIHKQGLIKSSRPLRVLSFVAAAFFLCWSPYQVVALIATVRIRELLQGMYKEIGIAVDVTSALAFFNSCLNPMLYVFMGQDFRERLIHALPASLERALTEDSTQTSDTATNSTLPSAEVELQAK
Chain of Endoplasmic reticulum aminopeptidase 1 (Q9NZ08 whole entry): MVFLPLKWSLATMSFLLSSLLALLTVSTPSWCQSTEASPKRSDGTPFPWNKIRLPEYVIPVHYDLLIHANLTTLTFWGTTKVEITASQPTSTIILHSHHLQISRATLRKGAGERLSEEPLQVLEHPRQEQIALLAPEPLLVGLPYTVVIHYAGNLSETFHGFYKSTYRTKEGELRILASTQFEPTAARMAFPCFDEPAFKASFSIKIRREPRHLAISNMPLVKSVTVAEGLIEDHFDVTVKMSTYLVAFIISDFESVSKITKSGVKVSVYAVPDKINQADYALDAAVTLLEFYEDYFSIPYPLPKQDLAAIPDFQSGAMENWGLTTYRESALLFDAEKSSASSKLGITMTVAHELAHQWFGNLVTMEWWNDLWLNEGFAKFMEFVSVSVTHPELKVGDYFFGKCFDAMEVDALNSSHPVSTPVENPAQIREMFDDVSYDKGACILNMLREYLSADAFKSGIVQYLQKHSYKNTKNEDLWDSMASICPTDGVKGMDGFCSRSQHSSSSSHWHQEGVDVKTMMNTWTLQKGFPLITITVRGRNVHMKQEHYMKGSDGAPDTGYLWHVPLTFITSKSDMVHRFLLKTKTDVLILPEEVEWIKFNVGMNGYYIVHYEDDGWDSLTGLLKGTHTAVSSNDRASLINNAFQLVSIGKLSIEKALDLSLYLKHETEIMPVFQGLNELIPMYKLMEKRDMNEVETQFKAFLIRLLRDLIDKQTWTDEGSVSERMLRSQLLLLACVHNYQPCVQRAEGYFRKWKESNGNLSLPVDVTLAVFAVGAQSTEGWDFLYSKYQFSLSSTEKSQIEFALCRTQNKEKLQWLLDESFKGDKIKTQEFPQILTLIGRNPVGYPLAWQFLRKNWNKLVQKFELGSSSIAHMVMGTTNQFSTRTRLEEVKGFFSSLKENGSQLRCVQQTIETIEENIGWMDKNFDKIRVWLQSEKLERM
Chain of Potassium channel subfamily K member 3 (O14649 whole entry): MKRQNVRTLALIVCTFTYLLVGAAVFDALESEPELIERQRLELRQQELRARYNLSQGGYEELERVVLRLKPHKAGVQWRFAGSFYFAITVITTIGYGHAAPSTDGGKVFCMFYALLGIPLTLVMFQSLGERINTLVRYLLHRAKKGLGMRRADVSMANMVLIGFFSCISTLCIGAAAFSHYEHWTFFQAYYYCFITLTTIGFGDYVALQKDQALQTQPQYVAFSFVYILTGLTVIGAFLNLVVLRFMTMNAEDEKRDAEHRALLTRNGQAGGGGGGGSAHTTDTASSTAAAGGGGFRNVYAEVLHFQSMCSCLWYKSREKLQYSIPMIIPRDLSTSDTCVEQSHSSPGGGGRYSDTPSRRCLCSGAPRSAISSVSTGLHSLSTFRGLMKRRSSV
Chain of Cytochrome P450 3A4 (P08684 whole entry): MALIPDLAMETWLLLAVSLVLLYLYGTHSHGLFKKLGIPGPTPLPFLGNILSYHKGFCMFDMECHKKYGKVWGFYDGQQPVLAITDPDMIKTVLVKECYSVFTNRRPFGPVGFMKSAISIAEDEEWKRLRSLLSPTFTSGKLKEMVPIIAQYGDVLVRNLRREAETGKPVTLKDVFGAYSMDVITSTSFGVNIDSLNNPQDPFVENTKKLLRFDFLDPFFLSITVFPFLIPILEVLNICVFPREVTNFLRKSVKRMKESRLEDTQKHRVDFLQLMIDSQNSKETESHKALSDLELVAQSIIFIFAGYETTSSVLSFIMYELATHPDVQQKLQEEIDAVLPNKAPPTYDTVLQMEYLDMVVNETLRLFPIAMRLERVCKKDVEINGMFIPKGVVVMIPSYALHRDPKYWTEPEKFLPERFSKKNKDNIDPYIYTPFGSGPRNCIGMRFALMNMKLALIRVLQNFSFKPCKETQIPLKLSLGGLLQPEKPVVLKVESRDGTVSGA

Compound: COc1cc(CN2CCc3ccccc3C2)ccc1O
- AC50 [1]: 0.912 µM (active)
- AC50 [2]: 24.9 µM (active)
- AC50 [3]: 5.64 µM (active)
- IC50 (cells [4]): > 29.9 µM (inactive)
- EC50 (cells [5]): > 29.9 µM (inactive)
- AC50 [6]: 3.71 µM (active)
- AC50 [7]: 2.65 µM (active)
- AC50 [8]: 2.93 µM (active)

Compound: C[C@@H]1CN([C@@H](C)CO)S(=O)(=O)c2ccc(C#Cc3ccccc3F)cc2O[C@@H]1CN(C)C(=O)Cc1ccncc1
- AC50 [9]: 6.5 µM (active)
- AC50 [10]: 5.41 µM (active)
- AC50 [11]: 45 µM (active)

Compound: CN1c2ccc(-c3cccc(C#N)c3)cc2[C@H]2[C@H](CCN2S(=O)(=O)c2ccccc2F)[C@H]1CO
- AC50 (Paired box protein Pax-8): 4.87 µM (active)
- AC50 [12]: 38.1 µM (active)
- AC50 [13]: 28.2 µM (active)
- AC50 [14]: 16.6 µM (active)
- AC50 [15]: 33.3 µM (active)
- AC50 [16]: 23.4 µM (active)
- AC50 [17]: 3.57 µM (active)

Compound: N#Cc1ccc(-c2ccc([C@@H]3[C@@H]4CN(C(=O)C5CC5)C[C@H]3N4)cc2)cc1
- AC50 (Paired box protein Pax-8): 1.16 µM (active)
- AC50 [18]: 40.5 µM (active)
- AC50 [12]: 7.18 µM (active)
- AC50 [14]: 7.05 µM (active)
- AC50 [19]: 0.821 µM (active)
- AC50 [20]: 1.97 µM (active)
- AC50 [15]: 4.73 µM (active)
- AC50 [21]: 1.22 µM (active)
- AC50 [22]: 0.684 µM (active)
- AC50 [16]: 19.9 µM (active)
- AC50 [23]: 1.7 µM (active)
- AC50 [24]: 0.328 µM (active)
- AC50 [25]: 1.41 µM (active)
- AC50 [17]: < 0.3 µM (active)
- AC50 [26]: 0.376 µM (active)
- AC50 [27]: 0.449 µM (active)

Compound: O=C(O)C1CCCCC1C(=O)N1CCc2ccccc2C1CN1C(=O)Cc2ccccc2C1=O (centres undefined)
- AC50 [28]: > 52 µM (inactive)

Compound: C[C@H](CO)N1C[C@H](C)[C@H](CN(C)C(=O)Nc2ccccc2)Oc2ncccc2C1=O
- AC50 [29]: 12.3 µM (active)

Compound: CCCCOc1cccc(NC(=O)c2coc(=O)c(Br)c2)c1
- IC50 [30]: 32.9 µM (inactive)
- IC50 [31]: 22.8 µM (inactive)

Compound: COc1ccc(C(=O)Nc2cccc(NC(=O)c3ccccc3)c2)cc1
- IC50 [32]: 4.46 µM (active)

Compound: Nc1ccc(Nc2ccccc2)cc1
- IC50 (Nonstructural protein 1): 45.3 µM (active)
- AC50 (INS1): 7.64 µM (active)
- Ki (fMet-Leu-Phe receptor): > 66.7 µM (inactive)
- AC50 (Cytochrome P450 3A4): 20 µM (inconclusive)

Compound: O=C(Cn1ccnc1[N+](=O)[O-])NCc1ccccc1 [BENZNIDAZOLE]
- AC50 [33]: 0.153 µM (active)
